Results published in patent publication US10065990B2, “Cyclic peptide compound, and preparation method, pharmaceutical composition and use thereof” (HANGZHOU GUANYU BIO-MEDICAL CO., LTD, priority 2013, dated 2018).
Read-outs that look alike come from different tables or passages of the source.

Columns and labels:
HDAC1 = HDAC1 (Homo sapiens, UniProt Q13547); assay: HDAC biochemical activity measurement (fluorescent substrate deacetylation);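 further: fluorogenic acetyl-lysine substrate (20 µM) deacetylated by HDAC1, then developer releases fluorophore read at 360 nm excitation and 460 nm emission, inhibitor incubated 30 min at 37 °C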
Procedure: The chemical activity of the compound is determined according to the degree of deacetylation inhibition of the HDAC enzyme. This experiment measured the degree of deacetylation related to tumor proliferation and metastasis of HDAC1, HDAC2, HDAC3, HDAC8, HDAC11 five subtypes HDAC enzymes. After the substrate containing an acetylated lysine side chain and HDAC enzyme are labeled with a fluorescent label, the fluorescent substrate is de acetyl. The fluorescent labeled substrate is cleaved by the enzyme, and the fluorescent substance is released, which generates 460 nm emission light under the excitation of 360 nm light.
HDAC substrate was diluted with reaction buffer to 200M (reaction concentration of 20M), the HDAC enzyme was diluted to the appropriate concentration, then added different concentrations of the test compounds and acted at 37° C. 30 minutes, and then added the same volume of 2-times concentration substrate developing solution (developer), incubated at room temperature for 15 minutes.

HDAC8 = molecular target: T1, HDAC8 (Homo sapiens, UniProt Q9BY41); assay: as above; conditions: 37° C. 30 minutes
T1 sequence (Q9BY41 1-377): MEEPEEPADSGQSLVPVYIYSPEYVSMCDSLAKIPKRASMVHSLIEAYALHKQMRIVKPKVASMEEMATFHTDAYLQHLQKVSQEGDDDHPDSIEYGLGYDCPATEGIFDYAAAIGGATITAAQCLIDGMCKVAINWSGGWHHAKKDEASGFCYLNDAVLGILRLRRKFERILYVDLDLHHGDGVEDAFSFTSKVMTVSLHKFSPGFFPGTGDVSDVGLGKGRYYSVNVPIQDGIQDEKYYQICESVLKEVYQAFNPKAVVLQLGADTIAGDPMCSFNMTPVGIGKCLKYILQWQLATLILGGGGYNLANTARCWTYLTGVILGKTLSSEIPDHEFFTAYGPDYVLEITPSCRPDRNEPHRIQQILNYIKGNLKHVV

[1] = system: A549 (human lung cancer cells); assay: MTT cancer cell growth inhibition; format: cell-based; conditions: Homo sapiens, A549, 72 h, MTT, 72 hours incubation, read-out: GI50 A54
Method in brief: (§1)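 MTT viability, 570 nm, GI50. Cells 1500/well; compound 72 h at final 10^−5–10^−10 M in triplicate.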

[2] = system: BGC-823 (human gastric cancer cells); assay: MTT cancer cell growth inhibition; format: cell-based; conditions: Homo sapiens, BGC-823, 72 h, MTT, 72 hours incubation, read-out: GI50 BG
Method in brief: as §1

[3] = system: Bel-7402 (human hepatoma cells); assay: MTT cancer cell growth inhibition; format: cell-based; conditions: Homo sapiens, Bel-7402, 72 h, MTT, 72 hours incubation, Bel-7402 cells; read-out: GI50 Bel-7402
Method in brief: as §1

[4] = system: DU145 (human prostate cancer cells); assay: MTT cancer cell growth inhibition; format: cell-based; conditions: Homo sapiens, DU-145, 72 h, MTT, 72 hours incubation, read-out: GI50 Du1
Method in brief: as §1

[5] = system: Huh-7 (human hepatoma cells); assay: MTT cancer cell growth inhibition; format: cell-based; conditions: Homo sapiens, Huh-7, 72 h, MTT, 72 hours incubation, Huh-7 cells; read-out: GI50 Huh-7
Method in brief: as §1

[6] = system: MCF-7 (human breast cancer cells); assay: MTT cancer cell growth inhibition; format: cell-based; conditions: Homo sapiens, MCF7, 72 h, 72 hours incubation, read-out: GI50 MCF
Method in brief: as §1

[7] = system: MOLT-4 (human acute lymphoblastic leukemia cells); assay: MTT cancer cell growth inhibition; format: cell-based; conditions: Homo sapiens, MOLT-4, 72 h, MTT, 72 hours incubation, read-out: GI50 Mol
Method in brief: as §1

[8] = system: PANC-1 (Pac-1, human pancreatic cancer cells); assay: MTT cancer cell growth inhibition; format: cell-based; conditions: Homo sapiens, PANC-1, 72 h, MTT, 72 hours incubation, read-out: GI50 PAN
Method in brief: as §1

[9] = system: U937 (human leukemia cells); assay: MTT cancer cell growth inhibition; format: cell-based; conditions: Homo sapiens, U-937, 72 h, MTT, 72 hours incubation, read-out: GI50 U93
Method in brief: as §1

[10] = system: lncap (prostate cancer cells); assay: MTT cancer cell growth inhibition; format: cell-based; conditions: Homo sapiens, LNCaP, 72 h, MTT, 72 hours incubation, read-out: GI50 lnca
Method in brief: as §1

HDAC3 = HDAC3 (Homo sapiens, UniProt O15379); assay: HDAC biochemical activity measurement (fluorescent substrate deacetylation);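 further: fluorogenic acetyl-lysine substrate (20 µM) deacetylated by HDAC3, then developer added for 15 min at room temperature, release of fluorophore read at excitation 360 nm, emission 460 nm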
[11] = HDAC1, 37° C. 30 minutes, read-out: IC50 HDAC1
[12] = read-out: IC50 HDAC3, HDAC3, 37° C. 30 minutes

Sequence of HDAC3 (O15379 whole entry, species assumed): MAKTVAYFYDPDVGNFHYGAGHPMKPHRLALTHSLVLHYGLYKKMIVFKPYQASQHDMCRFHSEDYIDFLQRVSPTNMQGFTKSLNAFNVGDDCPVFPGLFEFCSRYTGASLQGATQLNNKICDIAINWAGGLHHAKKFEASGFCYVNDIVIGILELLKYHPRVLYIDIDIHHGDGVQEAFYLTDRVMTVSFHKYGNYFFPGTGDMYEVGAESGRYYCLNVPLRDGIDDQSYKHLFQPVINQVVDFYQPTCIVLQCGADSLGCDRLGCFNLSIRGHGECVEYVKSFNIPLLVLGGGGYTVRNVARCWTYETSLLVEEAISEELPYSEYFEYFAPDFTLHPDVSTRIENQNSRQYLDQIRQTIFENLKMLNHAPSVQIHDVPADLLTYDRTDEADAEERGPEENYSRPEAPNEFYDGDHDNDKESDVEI
Sequence of HDAC3 (Q9Y618 395-489 partner limits assumed, species assumed): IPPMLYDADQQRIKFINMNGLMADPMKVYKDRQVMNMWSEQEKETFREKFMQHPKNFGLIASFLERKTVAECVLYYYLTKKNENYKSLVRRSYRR
Sequence of HDAC1 (Q13547 whole entry, species assumed): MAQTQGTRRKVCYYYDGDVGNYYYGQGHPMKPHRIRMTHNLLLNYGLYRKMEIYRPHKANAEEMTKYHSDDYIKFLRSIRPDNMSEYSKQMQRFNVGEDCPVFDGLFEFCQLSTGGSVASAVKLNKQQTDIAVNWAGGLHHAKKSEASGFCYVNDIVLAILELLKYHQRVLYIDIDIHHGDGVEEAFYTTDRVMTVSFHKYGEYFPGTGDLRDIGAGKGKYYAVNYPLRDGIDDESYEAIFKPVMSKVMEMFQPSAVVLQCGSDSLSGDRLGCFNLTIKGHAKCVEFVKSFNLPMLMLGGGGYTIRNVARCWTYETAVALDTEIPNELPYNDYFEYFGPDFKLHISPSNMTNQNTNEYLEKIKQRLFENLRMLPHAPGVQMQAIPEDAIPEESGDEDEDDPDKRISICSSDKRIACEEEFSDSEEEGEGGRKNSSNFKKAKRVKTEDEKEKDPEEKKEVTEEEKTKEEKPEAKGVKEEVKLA

| SMILES | IC50 (HDAC1; [11]) [µM] | IC50 (HDAC8) [µM] | GI50 [1] [µM] | GI50 [2] [µM] | GI50 [3] [µM] | GI50 [4] [µM] | GI50 [5] [µM] | GI50 [6] [µM] | GI50 [7] [µM] | GI50 [8] [µM] | GI50 [9] [µM] | GI50 ([1]; A549 cells) [µM] | GI50 ([2]; BGC-823 cells) [µM] | GI50 ([4]; DU145 cells) [µM] | GI50 ([6]; MCF-7 cells) [µM] | GI50 ([7]; MOLT-4 cells) [µM] | GI50 ([8]; PANC-1 cells) [µM] | GI50 ([9]; U937 cells) [µM] | GI50 ([10]; lncap cells) [µM] | IC50 (HDAC3) [µM] | other results |
| --- | --- | --- | --- | --- | --- | --- | --- | --- | --- | --- | --- | --- | --- | --- | --- | --- | --- | --- | --- | --- | --- |
| CC(=O)SCC/C=C/[C@@H]1CC(=O)NCc2cccc(n2)C(=O)NC(=C(C)C)C(=O)N[C@@H](C(C)C)C(=O)O1 [Compound 20] | 0.183 | 0.065 | 0.32 | 1.1 | 0.086 | 1.98 | 0.072 | 1.9 | 0.13 | 10.1 | 20.2 | – | – | – | – | – | – | – | – | – | IC50 (HDAC1; Table 3, read-out: IC50 HDAC1, D (non-substituent)): 0.183 µM; GI50 [10]: 5.1 µM; IC50 (HDAC3; [12]): 0.045 µM |
| C/C=C1\NC(=O)c2cc(SC)cc(n2)CNC(=O)C[C@@H](/C=C/CCSC(=O)CCCCCC)OC(=O)[C@H](C(C)C)NC1=O [Compound 151] | 0.061 | 0.038 | – | – | 0.026 | – | 0.035 | – | – | – | – | 0.04 | 0.04 | 0.04 | 0.04 | 0.09 | 0.04 | 0.04 | 0.07 | 0.023 | – |
| C/C=C1\NC(=O)c2cc(F)cc(n2)CNC(=O)C[C@@H](/C=C/CCSC(=O)CCCCCCC)OC(=O)[C@H](CC)NC1=O [Compound 55] | 0.013 | 0.043 | 0.05 | 0.05 | 0.081 | 0.03 | 0.029 | 0.07 | 0.02 | 0.08 | 0.05 | – | – | – | – | – | – | – | – | – | IC50 (HDAC1; Table 3, column C, read-out: IC50 HDAC1, C (six-membered ring with substituents)): 0.013 µM; GI50 [10]: 0.02 µM; IC50 (HDAC3; [12]): 0.035 µM |
| C/C=C1\NC(=O)c2nc(ccc2SC)CNC(=O)C[C@@H](/C=C/CCSC(=O)CCCCC)OC(=O)[C@H](C(C)C)NC1=O [Compound 153] | 0.072 | 0.028 | – | – | 0.096 | – | 0.075 | – | – | – | – | 0.03 | 0.02 | 0.06 | 0.06 | 0.08 | 0.02 | 0.03 | 0.05 | 0.036 | – |
| C=C1NC(=O)c2cc(SC)cc(n2)CNC(=O)C[C@@H](/C=C/CCSC(C)=O)OC(=O)[C@H](C(C)C)NC1=O [Compound 205] | 0.091 | 0.062 | – | – | 0.056 | – | 0.047 | – | – | – | – | 0.05 | 0.05 | 0.06 | 0.07 | 0.05 | 0.03 | 0.04 | 0.06 | 0.038 | – |
